Data from US5902826A, “Platinum (IV) complex and pharmaceutical composition comprising the same” (SS Pharmaceutical Co., Ltd., priority 1997, dated 1999).

Key:
[1] = system: mouse M5076 tumor (M5076 reticulosarcoma); experiment: Antitumor effect on mouse M5076 tumor (M5076 reticulosarcoma), s.c.-p.o.; type: in vivo; settings: for TI (therapeutic index): calculated from LD50 (single i.p.) and ID50 (p.o.); for dosage of GImax (in parentheses): dosage giving GImax, no mortal case; for dosage of GImax (in parentheses) / ID50 (dosage by which the GI value after 5 administrations shows 50%): p.o. once a day for 5 days; for GImax (maximum growth inhibition rate in the dosage range by which no mortal case can be found): male BDF1 mouse, 1×10^6 cells s.c., drug p.o. once a day for 5 days, 30 days of observation, average tumor weights vs non-treated group; for ID50 (dosage by which the GI value after 5 administrations shows 50%): calculated from linear regression line of GI at each dosage
Procedure: Test on antitumor effect on mouse M5076 tumor
A total of 1×10^6 cells of mouse M5076 tumor were transplanted subcutaneously (s.c.) of a 6-week age male BDF1 mouse, a drug (compound of the present invention) was administered orally (p.o.) once a day for 5 days starting on the next day and then, after 30 days of observation, growth inhibition rate (GI) was calculated from the average tumor weights in the drug-treated group and the non-treated group. […] Each of the drugs to be tested was prepared just before its use by dissolving or suspending the drug (compound of the present invention) in olive oil using a handy sonicator. The dosage was 0.1 ml per 10 g mouse body weight. In Table 1, GImax is the maximum value (%) of GI in the dosage range by which no mortal case can be found, and its dosage (mg/kg) is shown in parentheses.

[2] = LD50 (50% lethal dose by single intraperitoneal administration); type: in vivo, mouse; settings: 50% lethal dose by single intraperitoneal administration, obtained at the time of dose setting
[3] = background statement, derivative of cisplatin; cited from earlier work
[4] = background statement, cited from earlier work

1,1-cyclobutanedicarboxylato trans-dihydroxo (1,3-diamino-2-propanol)platinum (IV) [Compound 1]
TI (therapeutic index) [1]: > 25.0 | dosage of GImax (in parentheses) [1]: 32.0 mg/kg | GImax (maximum growth inhibition rate in the dosage range by which no mortal case can be found) [1]: 95.6% | ID50 (dosage by which the GI value after 5 administrations shows 50%) [1]: < 8.0 mg/kg | LD50 [2]: > 200.0 mg/kg

N.N.O=C([O-])C1(C(=O)[O-])CCC1.[Pt+2] [Carboplatin, carboplatin, reference compound]
TI (therapeutic index) [1]: 2.0 | dosage of GImax (in parentheses) [1]: 256.0 mg/kg | GImax (maximum growth inhibition rate in the dosage range by which no mortal case can be found) [1]: 75.3% | ID50 (dosage by which the GI value after 5 administrations shows 50%) [1]: 119.9 mg/kg | solubility in water [3]: increased solubility in water | renal toxicity ([4]; derivative of cisplatin): reduced renal toxicity | LD50 [2]: 245.0 mg/kg

N.N.[Cl][Pt][Cl] [Cisplatin, cisplatin, reference compound]
dosage of GImax (in parentheses) [1]: 8.0 mg/kg | GImax (maximum growth inhibition rate in the dosage range by which no mortal case can be found) [1]: 74.5% | ID50 (dosage by which the GI value after 5 administrations shows 50%) [1]: 3.2 mg/kg | nephropathy as a side effect [4]: sometimes causes serious nephropathy

O=C(OC1C[NH2+][Pt-2]2([O]C(=O)C(F)(F)F)([O]C(=O)C(F)(F)F)([NH2+]C1)[O]C(=O)C1(CCC1)C(=O)[O]2)C(F)(F)F (stereo not drawn) [Compound 11, 1,1-cyclobutanedicarboxylato trans-bis(trifluoroacetato) (O-trifluoroacetyl-1,3-diamino-2-propanol)platinum (IV)]
TI (therapeutic index) [1]: 17.3 | dosage of GImax (in parentheses) [1]: 32.0 mg/kg | GImax (maximum growth inhibition rate in the dosage range by which no mortal case can be found) [1]: 86.5% | ID50 (dosage by which the GI value after 5 administrations shows 50%) [1]: 10.2 mg/kg | LD50 [2]: 176.5 mg/kg

O=C([O][Pt-2]12([O]C(=O)C(F)(F)F)([NH2+]CC(O)C[NH2+]1)[O]C(=O)C1(CCC1)C(=O)[O]2)C(F)(F)F (stereo not drawn) [Compound 18, 1,1-cyclobutanedicarboxylato trans-bis(trifluoroacetato) (1,3-diamino-2-propanol)platinum (IV)]
TI (therapeutic index) [1]: 18.4 | dosage of GImax (in parentheses) [1]: 32.0 mg/kg | GImax (maximum growth inhibition rate in the dosage range by which no mortal case can be found) [1]: 95.6% | ID50 (dosage by which the GI value after 5 administrations shows 50%) [1]: 9.6 mg/kg | LD50 [2]: 176.8 mg/kg

trans-bis (acetato) 1,1-cyclobutanedicarboxylato (1,3-diamino-2-propanol) platinum (IV) [Compound 5]
TI (therapeutic index) [1]: 9.2 | dosage of GImax (in parentheses) [1]: 64.0 mg/kg | GImax (maximum growth inhibition rate in the dosage range by which no mortal case can be found) [1]: 61.4% | ID50 (dosage by which the GI value after 5 administrations shows 50%) [1]: 38.4 mg/kg | LD50 [2]: 353.0 mg/kg
